`O=C1OC(=O)[C@H]2[C@@H]1[C@H]1C=C[C@@H]2C1` showed a solubility (mole fraction) (in 1,4-dioxane, 288.15 K) of 0.177, a solubility (mole fraction) (in 1,4-dioxane, 293.15 K) of 0.199 and a solubility (mole fraction) (in 1,4-dioxane, 298.15 K) of 0.221. The solubility (mole fraction) (in 1,4-dioxane, 303.15 K) was 0.249, the solubility (mole fraction) (in 1,4-dioxane, 308.15 K) was 0.273 and the solubility (mole fraction) (in 1,4-dioxane, 313.15 K) was 0.304. For the same molecule, the solubility (mole fraction) (in 1,4-dioxane, 318.15 K) was 0.334, the solubility (mole fraction) (in 1,4-dioxane, 323.15 K) was 0.37 and the solubility (mole fraction) (in DMF, 278.15 K) was 0.209. The solubility (mole fraction) (in DMF, 283.15 K) was 0.23, the solubility (mole fraction) (in DMF, 288.15 K) was 0.246 and the solubility (mole fraction) (in DMF, 293.15 K) was 0.267. For the same molecule, the solubility (mole fraction) (in DMF, 298.15 K) was 0.288, the solubility (mole fraction) (in DMF, 303.15 K) was 0.309 and the solubility (mole fraction) (in DMF, 308.15 K) was 0.337. It also gave a solubility (mole fraction) (in DMF, 313.15 K) of 0.361, a solubility (mole fraction) (in DMF, 318.15 K) of 0.389 and a solubility (mole fraction) (in DMF, 323.15 K) of 0.419. It also gave a solubility (mole fraction) (in NMP, 278.15 K) of 0.257, a solubility (mole fraction) (in NMP, 283.15 K) of 0.271 and a solubility (mole fraction) (in NMP, 288.15 K) of 0.289. It also gave a solubility (mole fraction) (in NMP, 293.15 K) of 0.305, a solubility (mole fraction) (in NMP, 298.15 K) of 0.325 and a solubility (mole fraction) (in NMP, 303.15 K) of 0.345. The solubility (mole fraction) (in NMP, 308.15 K) was 0.371, the solubility (mole fraction) (in NMP, 313.15 K) was 0.392 and the solubility (mole fraction) (in NMP, 318.15 K) was 0.421. The solubility (mole fraction) (in NMP, 323.15 K) was 0.448, the solubility (mole fraction) (in acetone, 278.15 K) was 0.13 and the solubility (mole fraction) (in acetone, 283.15 K) was 0.144. It also gave a solubility (mole fraction) (in acetone, 288.15 K) of 0.162, a solubility (mole fraction) (in acetone, 293.15 K) of 0.179 and a solubility (mole fraction) (in acetone, 298.15 K) of 0.201. For the same molecule, the solubility (mole fraction) (in acetone, 303.15 K) was 0.223, the solubility (mole fraction) (in acetone, 308.15 K) was 0.251 and the solubility (mole fraction) (in acetone, 313.15 K) was 0.276. For the same molecule, the solubility (mole fraction) (in acetone, 318.15 K) was 0.308, the solubility (mole fraction) (in ethanol, 278.15 K) was 0.00405 and the solubility (mole fraction) (in ethanol, 283.15 K) was 0.00536. It also gave a solubility (mole fraction) (in ethanol, 288.15 K) of 0.00707, a solubility (mole fraction) (in ethanol, 293.15 K) of 0.00927 and a solubility (mole fraction) (in ethanol, 298.15 K) of 0.0117. It also gave a solubility (mole fraction) (in ethanol, 303.15 K) of 0.0155, a solubility (mole fraction) (in ethanol, 308.15 K) of 0.02 and a solubility (mole fraction) (in ethanol, 313.15 K) of 0.0255. It also gave a solubility (mole fraction) (in ethanol, 318.15 K) of 0.0321, a solubility (mole fraction) (in ethanol, 323.15 K) of 0.0404 and a solubility (mole fraction) (in ethyl acetate, 278.15 K) of 0.0719. It also gave a solubility (mole fraction) (in ethyl acetate, 283.15 K) of 0.0849, a solubility (mole fraction) (in ethyl acetate, 288.15 K) of 0.101 and a solubility (mole fraction) (in ethyl acetate, 293.15 K) of 0.115. It also gave a solubility (mole fraction) (in ethyl acetate, 298.15 K) of 0.134, a solubility (mole fraction) (in ethyl acetate, 303.15 K) of 0.154 and a solubility (mole fraction) (in ethyl acetate, 308.15 K) of 0.176. The solubility (mole fraction) (in ethyl acetate, 313.15 K) was 0.201, the solubility (mole fraction) (in ethyl acetate, 318.15 K) was 0.226 and the solubility (mole fraction) (in ethyl acetate, 323.15 K) was 0.254. It also gave a solubility (mole fraction) (in isopentyl acetate, 278.15 K) of 0.0426, a solubility (mole fraction) (in isopentyl acetate, 283.15 K) of 0.0504 and a solubility (mole fraction) (in isopentyl acetate, 288.15 K) of 0.0608. The solubility (mole fraction) (in isopentyl acetate, 293.15 K) was 0.07, the solubility (mole fraction) (in isopentyl acetate, 298.15 K) was 0.0818 and the solubility (mole fraction) (in isopentyl acetate, 303.15 K) was 0.0952. The solubility (mole fraction) (in isopentyl acetate, 308.15 K) was 0.107, the solubility (mole fraction) (in isopentyl acetate, 313.15 K) was 0.125 and the solubility (mole fraction) (in isopentyl acetate, 318.15 K) was 0.145. It also gave a solubility (mole fraction) (in isopentyl acetate, 323.15 K) of 0.165, a solubility (mole fraction) (in isopropyl acetate, 278.15 K) of 0.0541 and a solubility (mole fraction) (in isopropyl acetate, 283.15 K) of 0.0637. It also gave a solubility (mole fraction) (in isopropyl acetate, 288.15 K) of 0.0745, a solubility (mole fraction) (in isopropyl acetate, 293.15 K) of 0.0862 and a solubility (mole fraction) (in isopropyl acetate, 298.15 K) of 0.102. The solubility (mole fraction) (in isopropyl acetate, 303.15 K) was 0.117, the solubility (mole fraction) (in isopropyl acetate, 308.15 K) was 0.133 and the solubility (mole fraction) (in isopropyl acetate, 313.15 K) was 0.152. The solubility (mole fraction) (in isopropyl acetate, 318.15 K) was 0.172, the solubility (mole fraction) (in isopropyl acetate, 323.15 K) was 0.196 and the solubility (mole fraction) (in methyl acetate, 278.15 K) was 0.0936. For the same molecule, the solubility (mole fraction) (in methyl acetate, 283.15 K) was 0.11, the solubility (mole fraction) (in methyl acetate, 288.15 K) was 0.127 and the solubility (mole fraction) (in methyl acetate, 293.15 K) was 0.145. The solubility (mole fraction) (in methyl acetate, 298.15 K) was 0.166, the solubility (mole fraction) (in methyl acetate, 303.15 K) was 0.189 and the solubility (mole fraction) (in methyl acetate, 308.15 K) was 0.214. For the same molecule, the solubility (mole fraction) (in methyl acetate, 313.15 K) was 0.24, the solubility (mole fraction) (in methyl acetate, 318.15 K) was 0.269 and the solubility (mole fraction) (in methyl acetate, 323.15 K) was 0.298. For the same molecule, the solubility (mole fraction) (in n-butyl acetate, 278.15 K) was 0.0526, the solubility (mole fraction) (in n-butyl acetate, 283.15 K) was 0.0614 and the solubility (mole fraction) (in n-butyl acetate, 288.15 K) was 0.0725. The solubility (mole fraction) (in n-butyl acetate, 293.15 K) was 0.0835, the solubility (mole fraction) (in n-butyl acetate, 298.15 K) was 0.0969 and the solubility (mole fraction) (in n-butyl acetate, 303.15 K) was 0.111. It also gave a solubility (mole fraction) (in n-butyl acetate, 308.15 K) of 0.128, a solubility (mole fraction) (in n-butyl acetate, 313.15 K) of 0.145 and a solubility (mole fraction) (in n-butyl acetate, 318.15 K) of 0.165. It also gave a solubility (mole fraction) (in n-butyl acetate, 323.15 K) of 0.189, a solubility (mole fraction) (in n-hexyl acetate, 278.15 K) of 0.0377 and a solubility (mole fraction) (in n-hexyl acetate, 283.15 K) of 0.0447. It also gave a solubility (mole fraction) (in n-hexyl acetate, 288.15 K) of 0.0525, a solubility (mole fraction) (in n-hexyl acetate, 293.15 K) of 0.0614 and a solubility (mole fraction) (in n-hexyl acetate, 298.15 K) of 0.0717. For the same molecule, the solubility (mole fraction) (in n-hexyl acetate, 303.15 K) was 0.0828, the solubility (mole fraction) (in n-hexyl acetate, 308.15 K) was 0.0955 and the solubility (mole fraction) (in n-hexyl acetate, 313.15 K) was 0.11. It also gave a solubility (mole fraction) (in n-hexyl acetate, 318.15 K) of 0.125, a solubility (mole fraction) (in n-hexyl acetate, 323.15 K) of 0.144 and a solubility (mole fraction) (in n-pentyl acetate, 278.15 K) of 0.0448. For the same molecule, the solubility (mole fraction) (in n-pentyl acetate, 283.15 K) was 0.0526, the solubility (mole fraction) (in n-pentyl acetate, 288.15 K) was 0.0615 and the solubility (mole fraction) (in n-pentyl acetate, 293.15 K) was 0.0717. It also gave a solubility (mole fraction) (in n-pentyl acetate, 298.15 K) of 0.0833, a solubility (mole fraction) (in n-pentyl acetate, 303.15 K) of 0.0964 and a solubility (mole fraction) (in n-pentyl acetate, 308.15 K) of 0.111. It also gave a solubility (mole fraction) (in n-pentyl acetate, 313.15 K) of 0.126, a solubility (mole fraction) (in n-pentyl acetate, 318.15 K) of 0.144 and a solubility (mole fraction) (in n-pentyl acetate, 323.15 K) of 0.165. The solubility (mole fraction) (in n-propyl acetate, 278.15 K) was 0.0616, the solubility (mole fraction) (in n-propyl acetate, 283.15 K) was 0.0722 and the solubility (mole fraction) (in n-propyl acetate, 288.15 K) was 0.0852. The solubility (mole fraction) (in n-propyl acetate, 293.15 K) was 0.0981, the solubility (mole fraction) (in n-propyl acetate, 298.15 K) was 0.112 and the solubility (mole fraction) (in n-propyl acetate, 303.15 K) was 0.13. For the same molecule, the solubility (mole fraction) (in n-propyl acetate, 308.15 K) was 0.148, the solubility (mole fraction) (in n-propyl acetate, 313.15 K) was 0.17 and the solubility (mole fraction) (in n-propyl acetate, 318.15 K) was 0.191. The solubility (mole fraction) (in n-propyl acetate, 323.15 K) was 0.215, the solubility (mole fraction) (in octyl acetate, 278.15 K) was 0.0303 and the solubility (mole fraction) (in octyl acetate, 283.15 K) was 0.036. For the same molecule, the solubility (mole fraction) (in octyl acetate, 288.15 K) was 0.0424, the solubility (mole fraction) (in octyl acetate, 293.15 K) was 0.0496 and the solubility (mole fraction) (in octyl acetate, 298.15 K) was 0.0576. The solubility (mole fraction) (in octyl acetate, 303.15 K) was 0.0666, the solubility (mole fraction) (in octyl acetate, 308.15 K) was 0.0774 and the solubility (mole fraction) (in octyl acetate, 313.15 K) was 0.0875. It also gave a solubility (mole fraction) (in octyl acetate, 318.15 K) of 0.1 and a solubility (mole fraction) (in octyl acetate, 323.15 K) of 0.115.

Reference: BigSolDB 2.1
